According to ChEMBL document CHEMBL1201862, “PubChem BioAssay data set” (2004):
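Protocol summary: plate cells (96-well), add compound at 5 concentrations, incubate 48 h, interpolate endpoints linearly. GI50 is the concentration that inhibits growth by half.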 Active and inactive are the calls of the source. Cut-off read from the data, not from the text of the source: active = GI50 up to about 1.1 µM and inactive = higher.

How the values were obtained:
Experiment in all cases: NCI anticancer screen, dose series, 48 h
NCI-H522 = tested on: NCI-H522
SN12C = tested on: SN12C
SR = tested on: SR
OVCAR-4 = tested on: OVCAR-4
MOLT-4 = tested on: MOLT-4
SK-OV-3 = tested on: SK-OV-3
SF-295 = tested on: SF-295
SF-268 = tested on: SF-268
NCI/ADR-RES = tested on: NCI/ADR-RES
MCF7 = tested on: MCF7
KM12 = tested on: KM12
NCI-H226 = tested on: NCI-H226
EKVX = tested on: EKVX
A549 = tested on: A549
BT-549 = tested on: BT-549
MDA-MB-231 = tested on: MDA-MB-231
K562 = tested on: K562
UO-31 = tested on: UO-31
OVCAR-5 = tested on: OVCAR-5
SK-MEL-5 = tested on: SK-MEL-5
SNB-75 = tested on: SNB-75
CAKI-1 = tested on: CAKI-1
SK-MEL-28 = tested on: SK-MEL-28
DU-145 = tested on: DU-145
SF-539 = tested on: SF-539
ACHN = tested on: ACHN
UACC-62 = tested on: UACC-62
LOX IMVI = tested on: LOX IMVI
Hs-578T = tested on: Hs-578T
IGROV-1 = tested on: IGROV-1
HCT-116 = tested on: HCT-116
M14 = tested on: M14
RPMI-8226 = tested on: RPMI-8226
HOP-92 = tested on: HOP-92
RXF 393 = tested on: RXF 393
NCI-H23 = tested on: NCI-H23
TK-10 = tested on: TK-10
HCC 2998 = tested on: HCC 2998
SW-620 = tested on: SW-620
A498 = tested on: A498
COLO 205 = tested on: COLO 205
U-251 = tested on: U-251
786-0 = tested on: 786-0
OVCAR-8 = tested on: OVCAR-8
UACC-257 = tested on: UACC-257
T47D = tested on: T47D
CCRF-CEM = tested on: CCRF-CEM
HCT-15 = tested on: HCT-15
HT-29 = tested on: HT-29
SNB-19 = tested on: SNB-19
HL-60 = tested on: HL-60
MDA-MB-435 = tested on: MDA-MB-435
PC-3 = tested on: PC-3
NCI-H460 = tested on: NCI-H460
Malme-3M = tested on: Malme-3M
HOP-62 = tested on: HOP-62
MDA-N = tested on: MDA-N
SK-MEL-2 = tested on: SK-MEL-2
OVCAR-3 = tested on: OVCAR-3

SMILES: CN(C)c1nc(Cl)c2c(-c3ccccc3)c(-c3ccccc3)oc2n1
- GI50 (NCI-H522): 17.5 µM (inactive)
- GI50 (SN12C): 39.5 µM (inactive)
- GI50 (SR): 21.8 µM (inactive)
- GI50 (OVCAR-4): 75.7 µM (inactive)
- GI50 (MOLT-4): 32.2 µM (inactive)
- GI50 (SK-OV-3): 58.3 µM (inactive)
- GI50 (SF-295): 58.1 µM (inactive)
- GI50 (SF-268): 36 µM (inactive)
- GI50 (NCI/ADR-RES): 82.4 µM (inactive)
- GI50 (MCF7): 28.9 µM (inactive)
- GI50 (KM12): > 100 µM (inactive)
- GI50 (NCI-H226): > 100 µM (inactive)
- GI50 (EKVX): > 100 µM (inactive)
- GI50 (A549): 98.2 µM (inactive)
- GI50 (BT-549): 29.7 µM (inactive)
- GI50 (MDA-MB-231): 43 µM (inactive)
- GI50 (K562): 42.1 µM (inactive)
- GI50 (UO-31): > 100 µM (inactive)
- GI50 (OVCAR-5): > 100 µM (inactive)
- GI50 (SK-MEL-5): 41.7 µM (inactive)
- GI50 (SNB-75): 35.8 µM (inactive)
- GI50 (CAKI-1): 23.2 µM (inactive)
- GI50 (SK-MEL-28): > 100 µM (inactive)
- GI50 (DU-145): 52.4 µM (inactive)
- GI50 (SF-539): 48 µM (inactive)
- GI50 (ACHN): 70 µM (inactive)
- GI50 (UACC-62): 95.5 µM (inactive)
- GI50 (LOX IMVI): 33.3 µM (inactive)
- GI50 (Hs-578T): 62.1 µM (inactive)
- GI50 (IGROV-1): 80.7 µM (inactive)
- GI50 (HCT-116): 31.2 µM (inactive)
- GI50 (M14): > 100 µM (inactive)
- GI50 (RPMI-8226): 18.9 µM (inactive)
- GI50 (HOP-92): 81.5 µM (inactive)
- GI50 (RXF 393): 19.4 µM (inactive)
- GI50 (NCI-H23): 41.3 µM (inactive)
- GI50 (TK-10): > 100 µM (inactive)
- GI50 (HCC 2998): 64.6 µM (inactive)
- GI50 (SW-620): 93.5 µM (inactive)
- GI50 (A498): > 100 µM (inactive)
- GI50 (COLO 205): > 100 µM (inactive)
- GI50 (U-251): > 100 µM (inactive)
- GI50 (786-0): 72.8 µM (inactive)
- GI50 (OVCAR-8): > 100 µM (inactive)
- GI50 (UACC-257): > 100 µM (inactive)
- GI50 (T47D): 83 µM (inactive)
- GI50 (CCRF-CEM): 28.1 µM (inactive)
- GI50 (HCT-15): 31.6 µM
- GI50 (HT-29): 58.7 µM (inactive)
- GI50 (SNB-19): > 100 µM (inactive)
- GI50 (HL-60): 12.2 µM (inactive)
- GI50 (MDA-MB-435): > 100 µM (inactive)

SMILES: Cc1ncc(COP(=O)(O)O)c(/C=C2\SC(=S)NC2=O)c1O
- GI50 (PC-3): > 100 µM (inactive)
- GI50 (NCI-H522): > 100 µM (inactive)
- GI50 (SN12C): > 100 µM (inactive)
- GI50 (NCI-H460): > 100 µM (inactive)
- GI50 (SR): > 100 µM (inactive)
- GI50 (OVCAR-4): > 100 µM (inactive)
- GI50 (MOLT-4): > 100 µM (inactive)
- GI50 (SK-OV-3): > 100 µM (inactive)
- GI50 (SF-295): > 22.3 µM (inactive)
- GI50 (SF-268): > 100 µM (inactive)
- GI50 (NCI/ADR-RES): > 100 µM (inactive)
- GI50 (MCF7): > 100 µM (inactive)
- GI50 (KM12): > 100 µM (inactive)
- GI50 (NCI-H226): > 100 µM (inactive)
- GI50 (EKVX): > 100 µM (inactive)
- GI50 (A549): > 100 µM (inactive)
- GI50 (BT-549): > 100 µM (inactive)
- GI50 (MDA-MB-231): > 100 µM (inactive)
- GI50 (K562): > 85.7 µM (inactive)
- GI50 (UO-31): > 100 µM (inactive)
- GI50 (OVCAR-5): > 100 µM (inactive)
- GI50 (SK-MEL-5): > 100 µM (inactive)
- GI50 (SNB-75): > 100 µM (inactive)
- GI50 (Malme-3M): > 100 µM (inactive)
- GI50 (CAKI-1): > 100 µM (inactive)
- GI50 (SK-MEL-28): > 100 µM (inactive)
- GI50 (DU-145): > 100 µM (inactive)
- GI50 (SF-539): > 100 µM (inactive)
- GI50 (ACHN): > 100 µM (inactive)
- GI50 (UACC-62): > 100 µM (inactive)
- GI50 (LOX IMVI): > 100 µM (inactive)
- GI50 (HOP-62): > 100 µM (inactive)
- GI50 (MDA-N): > 100 µM (inactive)
- GI50 (IGROV-1): > 100 µM (inactive)
- GI50 (HCT-116): > 100 µM (inactive)
- GI50 (M14): > 100 µM (inactive)
- GI50 (RPMI-8226): > 100 µM (inactive)
- GI50 (HOP-92): > 74.5 µM (inactive)
- GI50 (RXF 393): > 100 µM (inactive)
- GI50 (NCI-H23): > 100 µM (inactive)
- GI50 (TK-10): > 100 µM (inactive)
- GI50 (SK-MEL-2): > 100 µM (inactive)
- GI50 (HCC 2998): > 100 µM (inactive)
- GI50 (SW-620): > 100 µM (inactive)
- GI50 (A498): > 100 µM (inactive)
- GI50 (COLO 205): > 100 µM (inactive)
- GI50 (U-251): > 100 µM (inactive)
- GI50 (OVCAR-3): > 100 µM (inactive)
- GI50 (786-0): > 100 µM (inactive)
- GI50 (OVCAR-8): > 100 µM (inactive)
- GI50 (UACC-257): > 100 µM (inactive)
- GI50 (T47D): > 100 µM (inactive)
- GI50 (HCT-15): > 100 µM
- GI50 (HT-29): > 100 µM (inactive)
- GI50 (SNB-19): > 100 µM (inactive)
- GI50 (MDA-MB-435): > 100 µM (inactive)
